Broadly, the melting point is the temperature, or range, at which the solid turns liquid. The IC50 is the midpoint of a concentration-inhibition curve.

The values that follow come from paper PMC8399847, “Hybrid Quinolinyl Phosphonates as Heterocyclic Carboxylate Isosteres: Synthesis and Biological Evaluation against Topoisomerase 1B (TOP1B)” (Pharmaceuticals, 2021).

Series [1] deals with leishmanial TOP1B (LTOP1B). Description: LTOP1B relaxation activity assay. Format: biochemical, Leishmania. Particulars: 100 µM of compound, 1 min. Here is the method:
The inhibition of relaxation activity of LTOP1B by the compounds was tested at 100 µM. The reactions were performed for 1 min in the way described in the experimental protocols section. The percentage of inhibition was calculated by measuring the intensity of the band corresponding to the supercoiled DNA when the different DNA topoisomers were separated in an agarose gel.
Purification of leishmanial DNA topoisomerase 1B (LTOP1B) was carried out as reported previously. Shortly, LTOP1B was purified using the deficient in TOP1 activity yeast strain, EKY3 MAT α ura3–52 his3Δ20ting, from the union of the bicistronic expression vector pESC-URA to both subunits of LTOP1B. The yeast cells were grown in a yeast synthetic drop-out medium without uracil (Sigma) supplemented with 2% raffinose (w/v) to OD600: 0.8–1 and induced for 10 h with 2% galactose (w/v). After that, the cells were harvested, washed with cold TEEG buffer (50 mM Tris–HCl pH 7.4, 1 mM EDTA, 1 mM EGTA, 10% glycerol), resuspended in 15 mL of 1× TEEG buffer supplemented with 0.2 M KCl and a protease inhibitors cocktail (Thermo Scientific, Waltham, MA, USA) and lysed. Protein extract obtained was loaded on a 5 mL Heparin Sepharose column (GE Healthcare, MA, USA). LTOP1B enzyme was eluted at 4 °C with a discontinuous gradient of KCl (0.2, 0.4, 0.6 M) in TEEG buffer.
Leishmanial TOP1B activity was tested by the relaxation of supercoiled plasmid DNA assay. Each reaction contained: one unit of purified LTOP1B enzyme, 100 µM of each compound, 0.5 μg of supercoiled pSK DNA, 10 mM Tris-HCl buffer pH 7.5, 5 mM MgCl2, 0.1 mM EDTA, 15 µg/mL bovine serum albumin, and 150 mM KCl. The final volume of each reaction was 20 µL. Reaction mixtures were incubated for 1 min at 37 °C and stopped by the addition of a 4 µL loading buffer (5% sarkosyl, 0.12% bromophenol blue, 25% glycerol). The DNA topoisomers were resolved in 1% agarose gels by electrophoresis in 0.1 M Tris borate EDTA buffer (pH 8.0) at 2 V/cm for 16 h and visualized with UV illumination after ethidium bromide (0.5 μg/mL) staining. The percentage of inhibition was calculated by measuring the intensity of the band corresponding to the supercoiled DNA after separating and staining the different DNA topoisomers. This analysis was performed using the GeneTools from Syngene software (Version 4.3.8, MD, USA).

Series [2] is described as follows: CCK-8 cytotoxicity assay, MRC-5 non-cancerous cells. Format: cell-based. The note with it: human, MRC-5 non-malignant lung fibroblasts. Here is the method:
(§1) The cytotoxicity of the newly synthesized quinolinylphosphonates 7 was evaluated in vitro by testing their antiproliferative activities against several human cancer cell lines: A549 (human lung adenocarcinoma cells), SKOV3 (human ovarian carcinoma), and HEK293 (human embryonic kidney). In order to analyze the selective cytotoxicity facing exclusively cancerous cell lines, cytotoxicity against non-cancerous cell lines (MRC-5, lung fibroblast cells) was also evaluated. Cell counting kit (CCK-8) assay was employed to assess growth inhibition and, cell proliferation inhibitory activities of compounds that are listed in Table 1 as IC50 values. […] According to the data presented in Table 1, in general, all these phosphorated derivatives present higher selective cytotoxicity in the A549 cell line than in the other two cell lines, SKOV3 and HEK293, although slight differences are observed compared to human ovarian carcinoma (SKOV3).
(§2) Cells were cultured according to the supplier’s instructions, A549 (ATCC® CCL-185), SKOV3 (ATCC® HTB-77), HEK293 (CLS GmbH), MRC-5 (ATCC® CCL-171™). Cells were seeded in 96-well plates at a density of 2–2.5 × 10^3 cells per well and incubated overnight in 0.1 mL of media supplied with 10% Fetal Bovine Serum (Lonza, Basel, Switzerland) in a 5% CO2 incubator at 37 °C. On day 2, drugs (concentration between 0.5–50 μM) were added and samples were incubated for 48 h. After treatment, 10 μL of cell counting kit-8 was added to each well for an additional 2 h incubation at 37 °C. The absorbance of each well was determined by an Automatic Elisa Reader System at 450 nm wavelength. CPT was purchased from Sigma-Aldrich and used as a positive control.

Series [3] deals with SKOV3 (human ovarian carcinoma). Description: CCK-8 cytotoxicity assay, SKOV3. Format: cell-based. The note with it: SK-OV-3, 48 h, read-out: Cytotoxicity IC50 Ovarian SKOV3. The procedure: as §1, §2
On the technique in general: Tetrazolium dyes change colour on reduction, which living cells bring about.

SMILES strings stand for the structures. Some results are limits rather than exact numbers.

Turning to `CCOP(=O)(OCC)c1ccc2nc(-c3ccc(F)cc3)cc(-c3ccc(F)cc3)c2c1` [7t, Diethyl (2,4-bis(4-fluorophenyl)quinolin-6-yl)phosphonate], the melting point was in the range of 161 to 164 °C. Moreover, in series [1], the “LTOP1B Inhibition” value was 37.86%. In addition, the IC50 at 48 h in series [2] was over 50 µM. Besides, in series [3], the IC50 is over 50 µM.
Compound `CCOP(=O)(OCC)c1ccc2nc(-c3ccc(F)c(F)c3)cc(-c3ccc(F)cc3)c2c1` [7u, Diethyl (2-(3,4-difluorophenyl)-4-(4-fluorophenyl)quinolin-6-yl)phosphonate] had a melting point of 130 to 132 °C. Further, in series [1], the “LTOP1B Inhibition” value was 50.24%. Further, in series [2], the IC50 at 48 h was over 50 µM. For the same compound, the IC50 in series [3] was over 50 µM.
With `CCOP(=O)(OCC)c1ccc2nc(-c3ccc(F)cc3)cc(-c3ccc(C)cc3)c2c1` [7v, Diethyl (2-(4-fluorophenyl)-4-(p-tolyl)quinolin-6-yl)phosphonate], the melting point lay in the range of 153 to 155 °C. For the same compound, the “LTOP1B Inhibition” value in series [1] is reported as 43.25%. This compound also gave an IC50 at 48 h in series [2] of over 50 µM. The IC50 in series [3] was 41.6 ± 10 µM.
Compound `CCOP(=O)(OCC)c1ccc2nc(-c3ccc(F)c(F)c3)cc(-c3ccc(C)cc3)c2c1` [7x, Diethyl (2-(3,4-difluorophenyl)-4-(p-tolyl)quinolin-6-yl)phosphonate] came in with a melting point of 158 to 160 °C. For the same compound, in series [1], the “LTOP1B Inhibition” value is 43.84%. Besides, the IC50 at 48 h in series [2] was over 50 µM. The IC50 in series [3] was over 50 µM.
